Consider 7 molecules from patent US20260265329A1, “POLYPEPTIDE AND DERIVATIVE THEREOF, COMPOSITION, AND USE THEREOF” (HANGZHOU SCIWIND BIOSCIENCES CO., LTD., priority 2023, published 2026).

This assay has as its target T1, human amylin receptors (Homo sapiens, UniProt O60896+P30988).
T1 construct: host or cells: CHO-K1/Ga15/AMY3 cells, further stably transfected with a CRE-luciferase plasmid
T1 sequence (P30988 25-474): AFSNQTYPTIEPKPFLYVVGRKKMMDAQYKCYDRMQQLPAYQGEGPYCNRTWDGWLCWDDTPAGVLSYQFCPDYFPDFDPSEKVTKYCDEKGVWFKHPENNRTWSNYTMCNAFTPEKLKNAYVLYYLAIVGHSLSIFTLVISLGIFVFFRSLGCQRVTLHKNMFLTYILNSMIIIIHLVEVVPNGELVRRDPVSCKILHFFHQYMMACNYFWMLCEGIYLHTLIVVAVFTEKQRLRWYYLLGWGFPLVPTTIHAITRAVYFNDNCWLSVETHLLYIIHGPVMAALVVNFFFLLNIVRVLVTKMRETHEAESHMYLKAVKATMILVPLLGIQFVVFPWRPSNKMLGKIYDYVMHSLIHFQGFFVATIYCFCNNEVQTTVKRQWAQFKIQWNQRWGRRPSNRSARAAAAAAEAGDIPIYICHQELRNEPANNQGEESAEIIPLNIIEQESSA
T1 sequence (O60896 24-148 partner): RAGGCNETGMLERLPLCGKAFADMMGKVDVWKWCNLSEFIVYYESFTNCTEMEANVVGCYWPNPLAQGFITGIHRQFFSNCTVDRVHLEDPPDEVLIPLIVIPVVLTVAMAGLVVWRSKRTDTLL
The assay can be described thus: Luciferase assay in stably transfected amylin receptor/CRE-luc CHO cell line. The class given is cell-based. The following applies: for Relative activity: EC50 ratio of Cagrilintide to the compound, Cagrilintide 100%; for EC50: amylin receptor/CRE-luc CHO cells, 24 hours incubation, luminescence.

Starred links: 1 amine or outer side, 2 acyl side, 3 side chain; linkers in the order of their positions; H or OH if unused. Non-standard residues stand in square brackets, D forms with d. Residues, ends and D or L forms follow the SMILES beside them. *: point of attachment. C20 diacid = O=C(O)CCCCCCCCCCCCCCCCCCC(=O)*; γGlu = O=C(O)[C@H](CCC(=O)[*:2])N[*:1]; Hyp = O=C(O)[C@@H]1C[C@@H](O)CN1; Trx = NC[C@H]1CC[C@H](C(=O)O)CC1; AEEA = NCCOCCOCC(=O)O; Inp = O=C(O)C1CCNCC1

The EC50 is the concentration that produces a half-maximal response. Higher therefore signals lower potency in that assay. As to `CC[C@H](C)[C@H](NC(=O)[C@H](CC(=O)O)NC(=O)[C@H](CCCNC(=N)N)NC(=O)[C@H](CC(=O)O)NC(=O)[C@H](CCCNC(=N)N)NC(=O)[C@H](CC(=O)O)NC(=O)[C@@H](NC(=O)[C@H](Cc1ccccc1)NC(=O)[C@H](Cc1c[nH]cn1)NC(=O)[C@H](CCCNC(=N)N)NC(=O)[C@H](CC(C)C)NC(=O)[C@H](Cc1ccccc1)NC(=O)[C@H](CC(=O)O)NC(=O)[C@H](C)NC(=O)[C@H](CC(C)C)NC(=O)[C@H](CCCNC(=N)N)NC(=O)[C@H](CCC(N)=O)NC(=O)[C@@H](NC(=O)[C@H](C)NC(=O)[C@H](C)NC(=O)[C@@H](NC(=O)[C@H](CO)NC(=O)[C@H](CC(C)C)NC(=O)[C@H](CCC(N)=O)NC(=O)[C@H](CO)NC(=O)[C@H](C)NC(=O)COCCOCCNC(=O)COCCOCCNC(=O)C1CCN(C(=O)CCCCCCCCCCCCCCCCCCC(=O)O)CC1)[C@@H](C)O)[C@@H](C)O)[C@@H](C)O)C(=O)N[C@@H](CC(C)C)C(=O)N1CCC[C@H]1C(=O)N1CCC[C@H]1C(=O)N[C@H](C(=O)N[C@@H](CC(N)=O)C(=O)N[C@H](C(=O)NCC(=O)N[C@@H](CO)C(=O)N[C@@H](CC(N)=O)C(=O)N[C@H](C(=O)N1CCC[C@H]1C(N)=O)[C@@H](C)O)C(C)C)[C@@H](C)O` [M21] ({C20 diacid-Inp-AEEA-AEEA}-ASQLSTAATQRLADFLRHFTDRDRDILPPTNVGSNTP-NH2), the Relative activity amounted to 126% and a half-maximal response (EC50) required 0.023 nM.
The molecule `CC[C@H](C)[C@H](NC(=O)[C@@H]1CCCN1C(=O)[C@H](CCCCN)NC(=O)[C@H](CC(C)C)NC(=O)[C@H](CC(N)=O)NC(=O)[C@H](CC(N)=O)NC(=O)[C@H](CO)NC(=O)[C@H](CO)NC(=O)[C@H](Cc1c[nH]cn1)NC(=O)[C@H](CCCNC(=N)N)NC(=O)[C@H](CC(C)C)NC(=O)[C@H](Cc1ccccc1)NC(=O)[C@H](CC(=O)O)NC(=O)[C@H](C)NC(=O)[C@H](CC(C)C)NC(=O)[C@H](CCCNC(=N)N)NC(=O)[C@H](CCC(N)=O)NC(=O)[C@@H](NC(=O)[C@H](C)NC(=O)[C@H](C)NC(=O)[C@@H](NC(=O)[C@H](CO)NC(=O)[C@H](CC(C)C)NC(=O)[C@H](CCC(N)=O)NC(=O)[C@H](CO)NC(=O)[C@H](C)NC(=O)C1CCN(C(=O)CCCCCCCCCCCCCCCCCCC(=O)O)CC1)[C@@H](C)O)[C@@H](C)O)C(=O)N[C@@H](CC(C)C)C(=O)N1CCC[C@H]1C(=O)N1CCC[C@H]1C(=O)N[C@H](C(=O)N[C@@H](CC(N)=O)C(=O)N[C@H](C(=O)NCC(=O)N[C@@H](CO)C(=O)N[C@@H](CC(N)=O)C(=O)N[C@H](C(=O)N1C[C@H](O)C[C@H]1C(N)=O)[C@@H](C)O)C(C)C)[C@@H](C)O` [M30] ({C20 diacid-Inp}-ASQLSTAATQRLADFLRHSSNNLKPILPPTNVGSNT[Hyp]-NH2) showed an EC50 of 0.039 nM.
With `CC[C@H](C)[C@H](NC(=O)[C@@H]1CCCN1C(=O)[C@H](CCCCN)NC(=O)[C@H](CC(C)C)NC(=O)[C@H](CC(N)=O)NC(=O)[C@H](CC(N)=O)NC(=O)[C@H](CO)NC(=O)[C@H](CO)NC(=O)[C@H](Cc1c[nH]cn1)NC(=O)[C@H](CCCNC(=N)N)NC(=O)[C@H](CC(C)C)NC(=O)[C@H](Cc1ccccc1)NC(=O)[C@H](CC(=O)O)NC(=O)[C@H](C)NC(=O)[C@H](CC(C)C)NC(=O)[C@H](CCCNC(=N)N)NC(=O)[C@H](CCC(N)=O)NC(=O)[C@@H](NC(=O)[C@H](C)NC(=O)[C@H](C)NC(=O)[C@@H](NC(=O)[C@H](CO)NC(=O)[C@H](CC(C)C)NC(=O)[C@H](CCC(N)=O)NC(=O)[C@H](CO)NC(=O)[C@H](C)NC(=O)COCCOCCNC(=O)COCCOCCNC(=O)C1CCN(C(=O)CCCCCCCCCCCCCCCCCCC(=O)O)CC1)[C@@H](C)O)[C@@H](C)O)C(=O)N[C@@H](CC(C)C)C(=O)N1CCC[C@H]1C(=O)N1CCC[C@H]1C(=O)N[C@H](C(=O)N[C@@H](CC(N)=O)C(=O)N[C@H](C(=O)NCC(=O)N[C@@H](CO)C(=O)N[C@@H](CC(N)=O)C(=O)N[C@H](C(=O)N1C[C@H](O)C[C@H]1C(N)=O)[C@@H](C)O)C(C)C)[C@@H](C)O` [M36] ({C20 diacid-Inp-AEEA-AEEA}-ASQLSTAATQRLADFLRHSSNNLKPILPPTNVGSNT[Hyp]-NH2), it took 0.059 nM to reach a half-maximal effect (EC50).
For `CC[C@H](C)[C@H](NC(=O)[C@@H]1CCCN1C(=O)[C@H](CCCCN)NC(=O)[C@H](CC(C)C)NC(=O)[C@H](CC(N)=O)NC(=O)[C@H](CC(N)=O)NC(=O)[C@H](CO)NC(=O)[C@H](CO)NC(=O)[C@H](Cc1c[nH]cn1)NC(=O)[C@H](CCCNC(=N)N)NC(=O)[C@H](CC(C)C)NC(=O)[C@H](Cc1ccccc1)NC(=O)[C@H](CC(=O)O)NC(=O)[C@H](C)NC(=O)[C@H](CC(C)C)NC(=O)[C@H](CCCNC(=N)N)NC(=O)[C@H](CCC(N)=O)NC(=O)[C@@H](NC(=O)[C@H](C)NC(=O)[C@H](C)NC(=O)[C@@H](NC(=O)[C@H](CO)NC(=O)[C@H](CC(C)C)NC(=O)[C@H](CCC(N)=O)NC(=O)[C@H](CO)NC(=O)[C@H](C)NC(=O)[C@H]1CC[C@H](CNC(=O)CCCCCCCCCCCCCCCCCCC(=O)O)CC1)[C@@H](C)O)[C@@H](C)O)C(=O)N[C@@H](CC(C)C)C(=O)N1CCC[C@H]1C(=O)N1CCC[C@H]1C(=O)N[C@H](C(=O)N[C@@H](CC(N)=O)C(=O)N[C@H](C(=O)NCC(=O)N[C@@H](CO)C(=O)N[C@@H](CC(N)=O)C(=O)N[C@H](C(=O)N1C[C@H](O)C[C@H]1C(N)=O)[C@@H](C)O)C(C)C)[C@@H](C)O` [M29] ({C20 diacid-Trx}-ASQLSTAATQRLADFLRHSSNNLKPILPPTNVGSNT[Hyp]-NH2), the Relative activity is recorded as 412%.
For the molecule `CC[C@H](C)[C@H](NC(=O)[C@H](CC(=O)O)NC(=O)[C@H](CCCNC(=N)N)NC(=O)[C@H](CC(=O)O)NC(=O)[C@H](CCCNC(=N)N)NC(=O)[C@H](CC(=O)O)NC(=O)[C@@H](NC(=O)[C@H](Cc1ccccc1)NC(=O)[C@H](Cc1c[nH]cn1)NC(=O)[C@H](CCCNC(=N)N)NC(=O)[C@H](CC(C)C)NC(=O)[C@H](Cc1ccccc1)NC(=O)[C@H](CC(=O)O)NC(=O)[C@H](C)NC(=O)[C@H](CC(C)C)NC(=O)[C@H](CCCNC(=N)N)NC(=O)CNC(=O)[C@H](CC(C)C)NC(=O)[C@H](C)NC(=O)[C@H](C)NC(=O)[C@@H](NC(=O)[C@H](CO)NC(=O)[C@H](CC(C)C)NC(=O)[C@H](CCC(=O)O)NC(=O)[C@H](CO)NC(=O)[C@H](C)NC(=O)CC[C@H](NC(=O)CCCCCCCCCCCCCCCCCCC(=O)O)C(=O)O)[C@@H](C)O)[C@@H](C)O)C(=O)N[C@@H](CC(C)C)C(=O)N1CCC[C@H]1C(=O)N1CCC[C@H]1C(=O)N[C@H](C(=O)N[C@@H](CC(N)=O)C(=O)N[C@H](C(=O)NCC(=O)N[C@@H](CO)C(=O)N[C@@H](CC(N)=O)C(=O)N[C@H](C(=O)N1CCC[C@H]1C(N)=O)[C@@H](C)O)C(C)C)[C@@H](C)O` [M3] ({C20 diacid-γGlu}-ASELSTAALGRLADFLRHFTDRDRDILPPTNVGSNTP-NH2), the Relative activity is listed as 32% and the EC50 came to 0.081 nM.
In the same order, the values of `CC[C@H](C)[C@H](NC(=O)[C@H](CC(=O)O)NC(=O)[C@H](CCCNC(=N)N)NC(=O)[C@H](CC(=O)O)NC(=O)[C@H](CCCNC(=N)N)NC(=O)[C@H](CC(=O)O)NC(=O)[C@@H](NC(=O)[C@H](Cc1ccccc1)NC(=O)[C@H](Cc1c[nH]cn1)NC(=O)[C@H](CCCNC(=N)N)NC(=O)[C@H](CC(C)C)NC(=O)[C@H](Cc1ccccc1)NC(=O)[C@H](CC(=O)O)NC(=O)[C@H](C)NC(=O)[C@H](CC(C)C)NC(=O)[C@H](CCCNC(=N)N)NC(=O)[C@H](CCC(N)=O)NC(=O)[C@@H](NC(=O)[C@H](C)NC(=O)[C@H](C)NC(=O)[C@@H](NC(=O)[C@H](CO)NC(=O)[C@H](CC(C)C)NC(=O)[C@H](CCC(N)=O)NC(=O)[C@H](CO)NC(=O)[C@H](C)NC(=O)[C@H](CCC(=O)O)NC(=O)CCCCCCCCCCCCCCCCCCC(=O)O)[C@@H](C)O)[C@@H](C)O)[C@@H](C)O)C(=O)N[C@@H](CC(C)C)C(=O)N1CCC[C@H]1C(=O)N1CCC[C@H]1C(=O)N[C@H](C(=O)N[C@@H](CC(N)=O)C(=O)N[C@H](C(=O)NCC(=O)N[C@@H](CO)C(=O)N[C@@H](CC(N)=O)C(=O)N[C@H](C(=O)N1CCC[C@H]1C(N)=O)[C@@H](C)O)C(C)C)[C@@H](C)O` [M11] ({C20 diacid}-EASQLSTAATQRLADFLRHFTDRDRDILPPTNVGSNTP-NH2) are 110% and 0.004 nM.
For `CC[C@H](C)[C@H](NC(=O)[C@H](CC(=O)O)NC(=O)[C@H](CCCNC(=N)N)NC(=O)[C@H](CC(=O)O)NC(=O)[C@H](CCCNC(=N)N)NC(=O)[C@H](CC(=O)O)NC(=O)[C@@H](NC(=O)[C@H](Cc1ccccc1)NC(=O)[C@H](Cc1c[nH]cn1)NC(=O)[C@H](CCCNC(=N)N)NC(=O)[C@H](CC(C)C)NC(=O)[C@H](Cc1ccccc1)NC(=O)[C@H](CC(=O)O)NC(=O)[C@H](C)NC(=O)[C@H](CC(C)C)NC(=O)[C@H](CCCNC(=N)N)NC(=O)[C@H](CCC(N)=O)NC(=O)[C@@H](NC(=O)[C@H](C)NC(=O)[C@H](C)NC(=O)[C@@H](NC(=O)[C@H](CO)NC(=O)[C@H](CC(C)C)NC(=O)[C@H](CCC(N)=O)NC(=O)[C@H](CO)NC(=O)[C@H](C)NC(=O)COCCOCCNC(=O)COCCOCCNC(=O)[C@H]1CC[C@H](CNC(=O)CCCCCCCCCCCCCCCCCCC(=O)O)CC1)[C@@H](C)O)[C@@H](C)O)[C@@H](C)O)C(=O)N[C@@H](CC(C)C)C(=O)N1CCC[C@H]1C(=O)N1CCC[C@H]1C(=O)N[C@H](C(=O)N[C@@H](CC(N)=O)C(=O)N[C@H](C(=O)NCC(=O)N[C@@H](CO)C(=O)N[C@@H](CC(N)=O)C(=O)N[C@H](C(=O)N1CCC[C@H]1C(N)=O)[C@@H](C)O)C(C)C)[C@@H](C)O` [M20] ({C20 diacid-Trx-AEEA-AEEA}-ASQLSTAATQRLADFLRHFTDRDRDILPPTNVGSNTP-NH2), the Relative activity was 171%.
